Source: patent US20260232699A1, “COMPOSITIONS OF A CANNABINOID AND A KINASE INHIBITOR FOR THE TREATMENT OF CANCER” (SINOVEDA CANADA INC., priority 2023, published 2026)
Values after ≈ are worked out from the molar mass of the structure shown.

Columns and labels:
[1] = sorafenib, cited from earlier work
[2] = tested on: pool of normal hepatocytes (HC3_23); assay: Normal hepatocyte toxicity, Calcein-AM; assay type: cell-based; details: Homo sapiens, 48-hour incubation, William's E media
Protocol: To evaluate the safety margin of the compounds prior to clinical trials, the toxicity of the compounds toward a pool of normal hepatocytes was investigated in-house using a hepatocyte pool obtained from Xenotech (HC3_23). Cells were thawed and plated in 96 well, black walled, gamma-irradiated plates (100 μl) after reconstitution in William's E media with Gibco hepatocellular maintenance supplement. Following an 18-hour recovery period, the media was exchanged with the same media containing 9 serial dilutions of the test compound mixtures (8 to 2000 μg/ml). Experiments were performed in triplicate. Following a 48-hour incubation period, Calcein-AM was added to provide a final concentration of 7 ng/ml to each well and allowed to react for 60 minutes before readings were acquired (excitation 494 nm, emission 517 nm). Data were fit to sigmoidal curves using four-point logistic curve fitting software and the 50% inflection points used for IC50 values.

[3] = Clinical study, patients; cited from earlier work
HepG2 cells = assay: rtPCR gene expression analysis (TaqMan array card); assay type: cell-based, human; details: 6 h at IC50 concentration, relative to negative control
Protocol: Target cancer gene pathways were analyzed using a custom Taqman® array card exploring 90 unique genes associated with cancer related pathways (Kanehisa, Goto et al. 2010).
Two million HepG2 cells in IMDM media with 20% FBS, and 1% ethanol were seeded in T75 flasks and incubated at 37° C., 7.5% CO2 until 70-80% confluent (approx. […]). […] Untreated cells were included as a negative control. Glyceraldehyde-3-phosphate dehydrogenase (GAPDH) was included as an endogenous control and used for normalization of the data.
Following a 6-hour incubation with the test compounds, the RNA was extracted using Invitrogen's Dynabead mRNA DIRECT kit using the recommended protocol to provide 50 μL of a purified mRNA solution. Fifty μL of RT master mix was mixed into the mRNA solution and the mixture left to react at 37° C. for 60 minutes. Reverse transcriptase inactivation was performed at 95° C. for 5 minutes and the resulting cDNA samples were kept at 4° C. until use. Fifty-five microliters of TaqMan Fast Advance master mix were added to an equal amount of cDNA sample containing 1 μg/100 μl of cDNA, which was loaded into each card reservoir. The cards were centrifuged twice at 1200 RPM for 3 minutes in a Legend XFR centrifuge and the rtPCR reaction was conducted in a QuantStudio7 PCR instrument using the recommended settings with 40 amplification cycles. Data processing was done using ThermoFisher's Connect™ application.

[4] = tested on: HCC PDX models 575, 658, and LI-011; assay: Clonogenic assay on patient-derived xenograft tumor cells; assay type: cell-based; details: Homo sapiens, 336 h; 575, 658, LI-011; 14 days continuous exposure; P=0.023; read-out: IC50 values, all PDX models examined
Protocol: Tumor xenografts (patient-derived: 575, […], and LI-011; as well as cell line-derived: HepG2) were passaged as subcutaneous xenografts in NMRI nu/nu mice. Once tumor volumes reached 600-1000 mm^3, tumors were harvested according to FELASA and GV-SOLAS animal welfare guidelines. Tumors were mechanically disaggregated and subsequently incubated with collagenase type IV (41 U/mL), DNase I (125 U/mL), hyaluronidase type III (100 U/mL), and dispase II (1 U/mL) in RPMI 1640 medium at 37° C. for 60-120 minutes. Cells were filtered through 100 μm and 40 μm mesh size sieves and washed with the same media devoid of enzymes and stored in liquid nitrogen vapor phase.
The clonogenic assay was carried out in 96 well, ultra-low attachment plates. Frozen aliquots of tumor cells were prepared from HepG2 HCC cells and the three tumor xenografts described above. Cells were thawed in Iscove's Modified Dulbecco's Medium (IMDM), supplemented with 20% (v/v) fetal calf serum, 50 μg/ml gentamicin, 1% ethanol, and 0.4% (w/v) agar prior to use. Test wells were first layered with 100 μl of the same soft-agar medium followed by 50 μl of media with tumor cells. Following solidification, the soft-agar layer was covered with 90 μl of the same culture medium without agar. After 24 hours, 10 μl of test compounds or control medium were added and left for 14 days (continuous exposure, 100 μl drug overlay). […]

For `CNC(=O)c1cc(Oc2ccc(NC(=O)Nc3ccc(Cl)c(C(F)(F)F)c3)cc2)ccn1` [Sorafenib], the “Solubility, μg/ml FaSSIF” value ([1]; fasted simulated intestinal fluid, value marked [1]) is listed as 3.3 [1] μg/ml, the “F (oral bioavailability)” value ([1]; value marked [1]) is listed as 0.38-0.49[1] and the “ClH (Hepatic clearance)” value ([1]; value marked [3]) is listed as ~0.051-0.066[3] L/min. For the same molecule, the “ClTB (Total body clearance)” value ([1]; value marked [3]) was 0.051-0.066[3] L/min, the “Vd, ss (Volume of distribution at steady state)” value ([1]; value marked [3]) was 1.01-1.3[3] L/kg and the “t½ (Half-life)” value ([1]; value marked [3]) was 14.09-18.23[3] hours. For the same molecule, the IC50 [2] was 70.1 µg/mL (≈ 151 µM), the Tmax [3] was 2 to 9.5 h and the Total body clearance [3] was 1.83 mL/min/kg. For the same molecule, the Volume of distribution [3] was 2.66 L/kg, the “ΔΔCt VEGFA” value (HepG2 cells; Angiogenesis) was −2.101 and the “ΔΔCt CAMK1” value (HepG2 cells; Ca Signaling) was −1.249. The “ΔΔCt BAD” value (HepG2 cells; Cell Cycle) was −1.712, the “ΔΔCt BAX” value (HepG2 cells; Cell Cycle) was −1.835 and the “ΔΔCt BCL2L1” value (HepG2 cells; Cell Cycle) was −1.67. For the same molecule, the “ΔΔCt BECN1” value (HepG2 cells; Cell Cycle) was −1.627, the “ΔΔCt CCND2” value (HepG2 cells; Cell Cycle) was −2.012 and the “ΔΔCt CDK2” value (HepG2 cells; Cell Cycle) was −1.072. For the same molecule, the “ΔΔCt CDK4” value (HepG2 cells; Cell Cycle) was −1.315, the “ΔΔCt CDK6” value (HepG2 cells; Cell Cycle) was −1.273 and the “ΔΔCt MAX” value (HepG2 cells; Cell Cycle) was −1.278. The “ΔΔCt MNT” value (HepG2 cells; Cell Cycle) was −1.155, the “ΔΔCt CTNNB1” value (HepG2 cells; Cellular Adhesion) was −1.355 and the “ΔΔCt MITF” value (HepG2 cells; Drug Resistance) was −2.782. For the same molecule, the “ΔΔCt TEAD2” value (HepG2 cells; HIPPO) was −1.447, the “ΔΔCt SMO” value (HepG2 cells; Hedge Hog signaling) was −1.125 and the “ΔΔCt STAT1” value (HepG2 cells; JAK-STAT) was −1.284. The “ΔΔCt ERBB2” value (HepG2 cells; MAP kinase) was 2.729, the “ΔΔCt MAP1LC3A” value (HepG2 cells; MAP kinase) was −1.658 and the “ΔΔCt MAP2K2” value (HepG2 cells; MAP kinase) was −1.241. For the same molecule, the “ΔΔCt MAP3K1” value (HepG2 cells; MAP kinase) was −2.162, the “ΔΔCt MAPK8” value (HepG2 cells; MAP kinase) was −1.245 and the “ΔΔCt RASA1” value (HepG2 cells; MAP kinase) was −2.013. The “ΔΔCt CRK” value (HepG2 cells; PI3K pathway) was −3.778, the “ΔΔCt PIK3C2A” value (HepG2 cells; PI3K pathway) was −2.308 and the “ΔΔCt PIK3CA” value (HepG2 cells; PI3K pathway) was −1.501. For the same molecule, the “ΔΔCt PTEN” value (HepG2 cells; PI3K pathway) was −1.165, the “ΔΔCt SMAD2” value (HepG2 cells; TGF signaling) was −1.348 and the “ΔΔCt GSK3B” value (HepG2 cells; Wnt signaling) was −1.105. For the same molecule, the “ΔΔCt ROCK1” value (HepG2 cells; Wnt signaling) was −1.495 and the IC50 [4] was 14.3 µM.
